Test results as given in publication PMC7604311, “Caprine Bactenecins as Promising Tools for Developing New Antimicrobial and Antitumor Drugs” (Frontiers in Cellular and Infection Microbiology, 2020).
Ends that are not written are not given here.

Columns and labels:
[1] = MTT test; type: cell-based; details: human, serum-free RPMI-1640, overnight incubation, mean ± SD of three independent tests, read-out: IC50 of cytotoxic action toward human PBMC
Protocol: Cytotoxic activity of peptides toward various types of eukaryotic cells was assessed using the standard MTT [3-(4,5-Dimethylthiazol-2-yl)-2,5-diphenyltetrazolium bromide] test ([Mosmann, 1983]). Human peripheral blood mononuclear cells (PBMC) were isolated from the peripheral blood of healthy donors. Whole heparinized blood diluted 3-fold with sterile PBS was carefully layered upon the 5 ml of the sterile Ficoll-400 (Pharmacia, Sweden) with a density of 1.077 in a sterile 50 ml conical tube and then centrifuged at 600 g and 4°C for 40 min. The mononuclear “ring” remaining above the Ficoll was collected using a transfer pipette and placed in another tube. Cells were washed twice with sterile PBS, resuspended in RPMI-1640 culture medium and immediately used for the test. Tumor cell lines were purchased from Biolot (Saint Petersburg, Russia) and cultured at 37°C and 5% CO2 in RPMI-1640 medium (Biolot, Saint Petersburg, Russia) supplemented with 10% fetal bovine serum, glutamine, and penicillin-streptomycin combination. For the experiments, cells were washed from the medium they were growing in and resuspended in serum- and antibiotic-free RPMI-1640. Cells were added at not less than 2 × 10^4 per well in sterile flat bottom 96-well microplates containing serial dilutions of tested peptides in RPMI-1640. For the positive control (100% viable cells), RPMI-1640 medium was used instead of the peptide solution, whereas for the negative control (0% viable cells) medium replaced both peptide and cells. Test plates were incubated at 37°C and 5% CO2 overnight, after which MTT metabolic marker in PBS (5 mg/ml) was introduced into each well. After an additional 4 h incubation, the reaction was stopped by adding isopropanol supplemented with 0.04 M HCl, in which the formazan crystals (formed as a result of MTT reduction in presence of metabolically active cells) were dissolved, and OD at 540 nm was measured. Background absorbance at 690 nm was subtracted from the results to countervail any unspecific OD fluctuations. The % of surviving cells was found as:
(2) Survival(%)=(ODsample−OD0% viable)/(OD100% viable−OD0% viable)×100%,
(§1) where ODsample, OD0% viable, and OD100% viable are respectively values of the OD at 540 nm minus the OD at 690 nm for the test sample and negative or positive controls. IC50 toxicity values were determined by nonlinear regression analysis of the dose response curves using Sigma Plot 11 (Systat Software Inc., USA). The experiments were repeated three times, with 3 parallels of samples and 4–6 parallels of controls each time.

[2] = test system: U937; experiment: MTT test; type: cell-based, human; details: serum-free RPMI-1640, overnight incubation, mean ± SD of three independent tests, read-out: IC50 of cytotoxic action toward U937
Protocol: Cytotoxic activity of peptides toward various types of eukaryotic cells was assessed using the standard MTT [3-(4,5-Dimethylthiazol-2-yl)-2,5-diphenyltetrazolium bromide] test ([Mosmann, 1983]). Human peripheral blood mononuclear cells (PBMC) were isolated from the peripheral blood of healthy donors. Whole heparinized blood diluted 3-fold with sterile PBS was carefully layered upon the 5 ml of the sterile Ficoll-400 (Pharmacia, Sweden) with a density of 1.077 in a sterile 50 ml conical tube and then centrifuged at 600 g and 4°C for 40 min. The mononuclear “ring” remaining above the Ficoll was collected using a transfer pipette and placed in another tube. Cells were washed twice with sterile PBS, resuspended in RPMI-1640 culture medium and immediately used for the test. Tumor cell lines were purchased from Biolot (Saint Petersburg, Russia) and cultured at 37°C and 5% CO2 in RPMI-1640 medium (Biolot, Saint Petersburg, Russia) supplemented with 10% fetal bovine serum, glutamine, and penicillin-streptomycin combination. For the experiments, cells were washed from the medium they were growing in and resuspended in serum- and antibiotic-free RPMI-1640. Cells were added at not less than 2 × 10^4 per well in sterile flat bottom 96-well microplates containing serial dilutions of tested peptides in RPMI-1640. […] After an additional 4 h incubation, the reaction was stopped by adding isopropanol supplemented with 0.04 M HCl, in which the formazan crystals (formed as a result of MTT reduction in presence of metabolically active cells) were dissolved, and OD at 540 nm was measured. Background absorbance at 690 nm was subtracted from the results to countervail any unspecific OD fluctuations. […]
as §1, with “The experiments were repeated three times, with 3 parallels of samples and 4–6 parallels of controls each time.” left out

[3] = test system: E. coli ML-35p; experiment: Broth microdilution assay (MIC); type: cell-based, Escherichia coli; details: 50% MH broth/50% 10 mM Na-P buffer pH 7.4 with 0.1% BSA, 1×10^6 CFU/ml, 20 h, median of 3–6 independent experiments in triplicate
Protocol: The minimal inhibitory concentrations (MIC) of peptides were determined using microdilution assay in Müller–Hinton (MH) broth in general accordance with the guidelines of the European Committee for Antimicrobial Susceptibility Testing. Test plates were additionally pretreated with 0.1% bovine serum albumin (BSA) in distilled H2O (incubated for 1 h at 37°C) to reduce possible non-specific binding of peptides to the plastic surface of the wells, as proposed for AMP activity measuring ([Tossi et al., 1997]; [Wiegand et al., 2008]). Two-fold serial dilutions of peptides starting with 2 × stock concentration were prepared in sterile 10 mM sodium phosphate (Na-P) buffer, pH 7.4, with 0.1% BSA. Thus, final solutions contained 50% of Na-P diluted peptide and 50% of MH broth with bacteria. Bacteria for testing were grown overnight, then transferred into a fresh portion of 2.1% MH medium and additionally incubated for 2–3 h to obtain bacterial culture in its mid-logarithmic growth phase, which was diluted down to the final concentration of 1 × 10^6 CFU/ml. Concentration of bacteria in growth medium was calculated based on its absorbance at 620 nm.
After 20 h of incubation of AMPs with bacteria MICs were determined as lowest concentrations of AMPs completely preventing the visible growth of bacteria. Tests were performed in 60-well Terasaki microplates (10 µl end volume, V-shaped bottom; Sarstedt, Germany); dilutions in each test were made in triplicate. Final MIC values were calculated as medians based on the results of 3–5 independent experiments.

[4] = test system: P. aeruginosa MDR 522/17; type: cell-based, Pseudomonas aeruginosa; details: MDR 522/17, 24 h
Protocol: (§2) Quantification of the biofilms forming in the presence of various concentrations of tested AMPs was performed using the crystal violet assay according to general guidelines ([Merritt et al., 2006]). Tests were performed in polystyrene 96-well plates with U-shaped bottom. Peptides were serially diluted in a bacterial growth medium (MH for A. baumannii or TSB for P. aeruguinosa) in a volume of 50 μl per well. Overnight cultures of tested bacteria in a stationary phase of growth were 50 times diluted and introduced into the experimental wells at the same volume of 50 μl. Samples were incubated for 24 h at 37°C. The content of the wells was then shacked out, the plates were gently washed from unattached planktonic bacteria in still water (poured into a large enough vessel); bacterial cells and matrix components adhered to the walls of the wells were stained with a 0.1% aqueous solution of crystal violet dye: 125 μl of dye solution was put into each well and incubated at room temperature for 10 min. After staining dye solution was removed, the plates were washed with clean water and allowed to air-dry. Finally, the bound dye was redissolved by adding 200 μl of 30% acetic acid into each well, incubating it for 15 min at room temperature, and then thoroughly mixing the content of the wells by pipetting. One hundred and twenty five microliters of crystal violet extract from each well were transferred into a flat-bottomed microtiter plate, and the optical density was measured at a wavelength of 560–595 nm (depending on the maximum of absorption in a particular experiment). Experimental samples were made in quadruplicates, and there were 8–9 repeats of control samples without peptides in each test. Presented results are medians calculated based on 3 independent experiments.

[5] = test system: A. baumannii 7226/16; type: cell-based, Acinetobacter baumannii; details: 7226/16, 24 h, 2
Protocol: as §2, with “After staining dye solution was removed, the plates were washed with clean water and allowed to air-dry. Finally, the bound dye was redissolved by adding 200 μl of 30% acetic acid into each well, incubating it for 15 min at room temperature, and then thoroughly mixing the content of the wells by pipetting.” left out, “Experimental samples were made in quadruplicates, and there were 8–9 repeats of control samples without peptides in each test.” left out

Row | Substance | IC50 [1] | IC50 [2] | MIC [3] | Biofilm inhibition [4] | Biofilm inhibition [5]
1 | RFRLPFRRPPIRIHPPPFY-NH2 [ChBac3.4(1-19)-NH2] | > 64 µM | > 64 µM | 4 µM | – | –
2 | RFRLPFRRPPIRIHPPPFYPPFRRFL [ChBac3.4-COOH] | 36.2 ± 6.9 µM | – | 2 µM | – | –
3 | RFRLPFRRPWPIRIHPPPFYPWPFRRFL [ChBac3.4-2-COOH] | 20.2 ± 4.5 µM | – | 4 µM | – | –
4 | RFRLPFRRPPIRIH-NH2 [ChBac3.4(1-14)-NH2] | > 64 µM | > 64 µM | 8 µM | – | –
5 | RFRRFRLPFRRPPIRIH-NH2 [RFR-ChBac3.4 (1-14)-NH2] | > 64 µM | > 64 µM | 1 µM | 79 ± 5% | 53 ± 3%
6 | RFRLPFRRPPIRIPPPFYPPFRRFL-NH2 [ChBac3.4(Н-)] | 34.7 ± 7.3 µM | – | 4 µM | – | –
